Reference: patent US4958010A, “Epipodophyllotoxin glucoside lactam derivatives” (Bristol-Myers Company, priority 1989, dated 1990)
Converted amounts (≈) assume the structure as drawn. “And” between values parts separate entries of the source, which are not always exact repeats. Equal values may be shown once.

Assays:
Type in all cases: cell-based
HCT-116 = assay: in vitro cytotoxicity assay, HCT-116 human colon tumor; settings: four-fold serial dilution, replicate determinations on separate lines; for IC50: Homo sapiens, HCT-116, concentration required to inhibit cell growth by 50%; for IC50 HCT-116: concentration required to inhibit cell growth by 50%
Protocol: (§1) Representative compounds of the present invention were also evaluated in in vitro cytotoxicity assay against various murine and human tumor cell lines. The in vitro cytotoxicity assay involved growing various mammalian tumor cells, including human tumor cells, on microtitre plates employing established tissue culture methods. The concentration of each compound required to inhibit cell growth by 50% (IC50) was then determined by four-fold serial dilution technique. Tumor cells of the following types were employed for each compound tested: B16-F10 murine melanoma; Moser human colon; SW900 human lung; and two human colon tumor cell lines namely HCT-116, and HCT/VP35, the latter being resistant to etoposide (VP). […] The in vitro data may also be evaluated in terms of potency ratio which is defined as the ratio of IC50 against an etoposide-resistant cell-line to IC50 against an etoposide-sensitive cell-line.

SW900 human lung = assay: in vitro cytotoxicity assay, SW900 human lung; settings: four-fold serial dilution, replicate determinations on separate lines; for IC50: Homo sapiens, SW900, concentration required to inhibit cell growth by 50%; for IC50 SW900: concentration required to inhibit cell growth by 50%
Protocol: as §1

B16-F10 murine melanoma = assay: in vitro cytotoxicity assay, B16-F10 murine melanoma; settings: four-fold serial dilution, replicate determinations on separate lines; for IC50: Mus musculus, B16-F10, concentration required to inhibit cell growth by 50%; for IC50 B16-F10: concentration required to inhibit cell growth by 50%
Protocol: as §1

Moser human colon = assay: in vitro cytotoxicity assay, Moser human colon; settings: concentration required to inhibit cell growth by 50%, four-fold serial dilution, replicate determinations on separate lines; for IC50: Homo sapiens
Protocol: as §1

HCT/VP35 = assay: in vitro cytotoxicity assay, HCT/VP35 human colon tumor resistant to etoposide; settings: for IC50: Homo sapiens, HCT/VP35, etoposide-resistant line; for IC50 / IC50 HCT/VP35: concentration required to inhibit cell growth by 50%, four-fold serial dilution, replicate determinations on separate lines; for IC50 HCT/VP35: etoposide-resistant line; for potency ratio IC50 HCT/VP35 : IC50 HCT-116: ratio of IC50 against etoposide-resistant cell line to IC50 against etoposide-sensitive cell line, same experiment
Protocol: as §1

SMILES	IC50 (HCT-116)	IC50 HCT-116 (HCT-116)	IC50 (SW900 human lung)	IC50 SW900 (SW900 human lung)	IC50 (B16-F10 murine melanoma)	IC50 B16-F10 (B16-F10 murine melanoma)	IC50 (Moser human colon)	IC50 Moser (Moser human colon)	IC50 (HCT/VP35)	IC50 HCT/VP35 (HCT/VP35)	potency ratio IC50 HCT/VP35 : IC50 HCT-116 (HCT/VP35)
COc1cc([C@@H]2c3cc4c(cc3[C@@H](O[C@@H]3O[C@@H]5CO[C@@H](C)O[C@H]5[C@H](O)[C@H]3O)[C@@H](CO)[C@@H]2C(N)=O)OCO4)cc(OC)c1O (relative stereo) [Example 2, Naphtho[2,3-d]-1,3-dioxole-6-carboxamide, 5,6,7,8-tetrahydro-8-[(4,6-0-ethylidene-β-D-glucopyranosyl)oxy]-5-[(4-hydroxy-3,5-dimethoxy)phenyl]-7-(hydroxymethyl)-, [5Rα,6α,7β,8β(R*)]-]	78.6 µg/mL (≈ 130 µM)	96.28 µg/mL (≈ 159 µM)	106 µg/mL (≈ 175 µM)	120.54 µg/mL (≈ 199 µM)	70.6 µg/mL (≈ 117 µM)	93.03 µg/mL (≈ 154 µM)	107 µg/mL (≈ 177 µM)	115.67 µg/mL (≈ 191 µM)	> 250 µg/mL		
COc1cc([C@@H]2c3cc4c(cc3[C@@H](O[C@@H]3O[C@@H]5CO[C@@H](C)O[C@H]5[C@H](O)[C@H]3O)[C@H]3CN(N=C(C)C)C(=O)[C@H]23)OCO4)cc(OC)c1O (relative stereo) [Example 8, 6H-Pyrrolo[3',4':6,7]naphtho[2,3-d]-1,3-dioxole-6-one, 5,5,a,7,8,8a,9-hexahydro-9-[(4,6-O-ethylidene-β-D-glucopyranosyl)oxy]-5-[(4-hydroxy-3,5-dimethoxy)phenyl]-7-[(2-propylidene)amino]-, [5 R-[5α,5aβ,8aα,9β(R*)]-]	69.4 µg/mL (≈ 108 µM)	78.90 µg/mL and 108.89 µg/mL	> 250 µg/mL		43.2 µg/mL (≈ 67.3 µM)	61.29 µg/mL and 74.21 µg/mL		91.26 µg/mL and 123.63 µg/mL and > 250 µg/mL	103 µg/mL (≈ 160 µM)	96.26 µg/mL (≈ 150 µM)	
COc1cc([C@@H]2c3cc4c(cc3[C@@H](O[C@@H]3O[C@@H]5CO[C@@H](C)O[C@H]5[C@H](O)[C@H]3O)[C@H]3CN(N=Cc5ccccc5)C(=O)[C@H]23)OCO4)cc(OC)c1O [Example 3, 6H-Pyrrolo[3',4':6,7]naphtho[2,3-d]-1,3-dioxole-6-one, 5,5a,7,8,8a,9-hexahydro-9-[(4,6-O-ethylidene-β-D-glucopyranosyl)oxy]-5-[(4-hydroxy-3,5-dimethoxy)phenyl]-7-[(phenylmethylene)amino][5R-[5α,5aβ,8aα,9β(R*)]-]	23.8 µg/mL (≈ 34.4 µM)	20.04 µg/mL (≈ 29 µM)	36.5 µg/mL (≈ 52.8 µM)	48.73 µg/mL (≈ 70.6 µM)	10.3 µg/mL (≈ 15 µM)	17.80 µg/mL (≈ 25.8 µM)	56.4 µg/mL (≈ 81.7 µM)	73.81 µg/mL (≈ 107 µM)	38.3 µg/mL (≈ 55.5 µM)	42.37 µg/mL (≈ 61.3 µM)	
COc1cc([C@@H]2c3cc4c(cc3[C@@H](O[C@@H]3O[C@@H]5CO[C@@H](C)O[C@H]5[C@H](O)[C@H]3O)[C@H]3CN(NCc5ccccc5)C(=O)[C@H]23)OCO4)cc(OC)c1O [Example 4, 6H-Pyrrolo[3',4':6,7]naphtho[2,3-d]-1,3-dioxole-6-one, 5,5a,7,8,8a,9-hexahydro-9-[(4,6-O-ethylidene-β-D-glucopyranosyl)oxy]-5-[(4-hydroxy-3,5-dimethoxy)phenyl]-7-[(phenylmethyl)amino]-, [5R-[5α,5aβ,8aα,9β(R*)]-]	105 µg/mL (≈ 151 µM)	113.88 µg/mL (≈ 164 µM)	> 250 µg/mL		73.4 µg/mL (≈ 106 µM)	95.19 µg/mL (≈ 137 µM)		122.94 µg/mL and > 250 µg/mL	> 250 µg/mL		
COc1cc([C@@H]2c3cc4c(cc3[C@@H](O[C@@H]3O[C@@H]5CO[C@@H](C)O[C@H]5[C@H](O)[C@H]3O)[C@H]3CNC(=O)[C@H]23)OCO4)cc(OC)c1O [Example 5, 6H-Pyrrolo[3',4':6,7]naphtho[2,3-d]-1,3-dioxole-6-one,5,5a,7,8,8a,9-hexahydro-9-[(4,6-O-ethylidene-β-D-glucopyranosyl)oxy]-5-[(4-hydroxy-3,5-dimethoxy)phenyl]-, [5R-[5α,5aα,8aα, 9β(R*)]-]	56.1 µg/mL (≈ 95.5 µM)	66.52 µg/mL (≈ 113 µM)	107 µg/mL (≈ 183 µM)	123.53 µg/mL (≈ 210 µM)		27.92 µg/mL and 72.27 µg/mL	81.1 µg/mL (≈ 138 µM)	102.51 µg/mL (≈ 174 µM)	103 µg/mL (≈ 175 µM)	111.78 µg/mL (≈ 190 µM)	
COc1cc([C@@H]2c3cc4c(cc3[C@@H](O[C@@H]3O[C@@H]5CO[C@@H](C)O[C@H]5[C@H](O)[C@H]3O)[C@H]3CN(N=Cc5ccc([N+](=O)[O-])cc5)C(=O)[C@H]23)OCO4)cc(OC)c1O [Example 6, 6H-Pyrrolo[3',4':6,7]naphtho[2,3-d]-1,3-dioxole-6-one, 5,5a,7,8,8a,9-hexahydro-9-[(4,6-O-ethylidene-δ-D-glucopyranosyl)oxy]-5-[(4-hydroxy-3,5-dimethoxy)phenyl]-7-[[(4-nitrophenyl)methylene]amino], [5R-[5α,5aβ,8aα,9β(R*)]-]	83.6 µg/mL (≈ 114 µM)	60.66 µg/mL (≈ 82.5 µM)	> 250 µg/mL			7.73 µg/mL and 16.11 µg/mL	> 250 µg/mL		> 250 µg/mL		
CCCCCCCC=NN1C[C@H]2[C@H](C1=O)[C@H](c1cc(OC)c(O)c(OC)c1)c1cc3c(cc1[C@H]2O[C@@H]1O[C@@H]2CO[C@@H](C)O[C@H]2[C@H](O)[C@H]1O)OCO3 [Example 9, 6H-Pyrrolo[3',4':6,7]naphtho[2,3-d]-1,3-dioxole-6-one, 5,5a,7,8,8a,9-hexahydro-9-[(4,6-O-ethylidene-β-D-glucopyranosyl)oxy]-5-[(4-hydroxy-3,5-dimethoxy)phenyl]-7-[(octylidene)amino]-, [5R-[5α,5aβ,8aα,9β(R*)]-]		3.39 µg/mL and 4.68 µg/mL and 16.63 µg/mL		21.21 µg/mL and 52.18 µg/mL and 95.53 µg/mL	6.64 µg/mL (≈ 9.32 µM)	6.70 µg/mL and 10.21 µg/mL	11.5 µg/mL (≈ 16.1 µM)	15.09 µg/mL and 15.98 µg/mL		6.85 µg/mL and 23.65 µg/mL	
CCCCCCCC(=O)Oc1c(OC)cc([C@@H]2c3cc4c(cc3[C@@H](O[C@@H]3O[C@@H]5CO[C@@H](C)O[C@H]5[C@H](O)[C@H]3O)[C@H]3CN(N=Cc5ccccc5)C(=O)[C@H]23)OCO4)cc1OC [Example 10, 6H-Pyrrolo[3',4':6,7]naphtho[2,3-d]-1,3-dioxole-6-one, 5,5a,7,8,8a,9-hexahydro-9-[(4,6-O-ethylidene-β-D-glucopyranosyl)oxy]-5-[(3,5-dimethoxy-4-octanoyloxy)phenyl]-7-[(phenylmethylene)amino]-, [5R-[5α,5aβ,8aα, 9β(R*)]-]	17.3 µg/mL (≈ 21.1 µM)	16.05 µg/mL (≈ 19.6 µM)	21.2 µg/mL (≈ 26 µM)	19.82 µg/mL (≈ 24.3 µM)	23.6 µg/mL (≈ 29 µM)	16.76 µg/mL (≈ 20.5 µM)	25.6 µg/mL (≈ 31.3 µM)	16.38 µg/mL (≈ 20.1 µM)	25.6 µg/mL (≈ 31.3 µM)	13.50 µg/mL (≈ 16.5 µM)	1
CCCCCCCC(=O)Oc1c(OC)cc([C@@H]2c3cc4c(cc3[C@@H](O[C@@H]3O[C@@H]5CO[C@@H](C)O[C@H]5[C@H](O)[C@H]3O)[C@H]3CNC(=O)[C@H]23)OCO4)cc1OC [Example 11, 6H-Pyrrolo[3',4':6,7]naphtho[2,3-d]-1,3-dioxole-6-one, 5,5a,7,8,8a,9-hexahydro-9[(4,6-O-ethylidene-β-D-glucopyranosyl)oxy]-5-[(3,5-dimethoxy-4-octanoyloxy)phenyl], [5R-[5α,5aβ,8aα,9β(R*)]-]	17.3 µg/mL (≈ 24.2 µM)	18.33 µg/mL (≈ 25.7 µM)	12.3 µg/mL (≈ 17.3 µM)	12.48 µg/mL (≈ 17.5 µM)	21 µg/mL (≈ 29.4 µM)	20.69 µg/mL (≈ 29 µM)	20.2 µg/mL (≈ 28.3 µM)	25.92 µg/mL (≈ 36.3 µM)	18.7 µg/mL (≈ 26.2 µM)	25.22 µg/mL (≈ 35.3 µM)	1
